How the values were obtained:
[1] = biological target: BCLXL (Homo sapiens, UniProt Q07817, V10N/V9A); test: Fluorescence polarisation assay (PUMA-based probe displacement); assay type: binding; note: 20 nM protein, 10 nM fluorescent probe
[2] = test system: MOLT-4 cells; test: MOLT-4 cell viability, MTT assay; assay type: cell-based; conditions: Homo sapiens, MOLT-4, 48 h, 48 h exposure
In short: (§1)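 Viability read by MTT reduction (OD 540 nm after overnight SDS/HCl lysis) after 48 h compound treatment of cells in RPMI 1640/10% FBS. Triplicates at nine concentrations, 3.16-fold apart; four-parameter curve fitting yields IC50.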

[3] = test system: H146 cells; test: H146 cell viability, MTT assay; assay type: cell-based; conditions: Homo sapiens, NCI-H146, 48 h, 48 h exposure
In short: as §1

[4] = biological target: T1, Bcl-xL protein (Homo sapiens, UniProt Q07817, N197C); test: Fluorescence quenching assay (PUMA peptide displacement); assay type: binding; conditions: 1 nM protein, 400 nM peptide, 2 hours at 23° C.; KI determined from IC50
T1 construct: (2-197)[N197C]; His-His (two His8 stretches joined by a Gly/Ala/Ser/Thr linker)
Text: Fluorescence quenching assay measures the change in fluorescence intensity of C-terminally Cy5-labeled BCL-xL protein, His-His-(EK)-hs ? (2-197)[N197C] (UniProtKB® primary accession number Q07817-1) having an amino acid sequence (SEQ ID:03): [[…] […] […] […] […]] which is linked in C-terminal region to the amino acid X which corresponds to a cysteine labeled on the sulfur with Sulfo-Cyanine5 from Lumiprobe GmbH catalogue number 13380, upon binding of a C-terminally labeled peptide derived from PUMA (UniProtKB® primary accession number Q9BXH1) having an aminoacid sequence (SEQ ID:04): [[…]] which is linked in C-terminal region to the amino acid X′ where X′ is cysteine labeled on the sulfur with TQ5WS from AAT Bioquest catalogue number 2079.
The addition of a compound which binds competitively to the same site as the peptide will result in an increase in the fluorescence intensity of the protein due to displacement of the fluorescence quencher.
An 11-point serial dilution of each compound was prepared in DMSO the final buffer conditions were 10 mM 4-(2-hydroxyethyl)-1-piperazineethanesulfonic acid [HEPES], 150 mM NaCl, 0.05% Tween 20, pH 7.4 and 5% DMSO. The final protein concentration in the assay was 1 nM with the peptide present at 400 nM. The experiments were incubated for 2 hours at 23° C. before fluorescence intensity was measured on a Biotek SynergyNeo plate reader (Excitation 620 nm, emission 680 nm). […] The KI values were determined from the IC50 values according to Cer et al, Nucleic Acids Res, 2009, Jul. 1: 37(WebServer issue): W441-W445.

T1 sequence (Q07817 2-197 N197C): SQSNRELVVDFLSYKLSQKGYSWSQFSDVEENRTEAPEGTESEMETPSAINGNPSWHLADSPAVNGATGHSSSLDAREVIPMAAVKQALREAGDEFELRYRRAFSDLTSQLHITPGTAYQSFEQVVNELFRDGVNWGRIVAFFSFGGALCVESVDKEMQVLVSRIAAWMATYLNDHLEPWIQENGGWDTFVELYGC
Chain of BCLXL (Q07817 with tags, fused parts or gaps V9A/V10N): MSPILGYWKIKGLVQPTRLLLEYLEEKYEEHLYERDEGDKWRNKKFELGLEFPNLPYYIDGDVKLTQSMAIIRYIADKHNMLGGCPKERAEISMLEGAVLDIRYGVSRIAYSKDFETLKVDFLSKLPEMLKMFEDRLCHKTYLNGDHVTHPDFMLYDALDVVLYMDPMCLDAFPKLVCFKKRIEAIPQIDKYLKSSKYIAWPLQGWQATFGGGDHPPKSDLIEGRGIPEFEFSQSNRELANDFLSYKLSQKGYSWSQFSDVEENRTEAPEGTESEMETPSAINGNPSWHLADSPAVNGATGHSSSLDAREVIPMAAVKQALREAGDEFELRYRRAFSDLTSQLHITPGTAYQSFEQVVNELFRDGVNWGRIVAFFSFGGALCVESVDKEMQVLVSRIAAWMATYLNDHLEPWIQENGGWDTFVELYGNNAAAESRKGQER

Structure (SMILES) | Ki [1] | IC50 [2] | IC50 [3] | Ki [4]
Cc1cc(N(C)c2nc(C(=O)O)c(CCCOc3ccc(C#CCN(C)C(=O)OC(C)(C)C)cc3F)s2)nnc1Nc1nc2ccccc2s1 [Example 82, 2-({6-[(1,3-Benzothiazol-2-yl)amino]-5-methylpyridazin-3-yl}(methyl)amino)-5-{3-[4-(3-{[(tert-butoxy)carbonyl](methyl)amino}prop-1-yn-1-yl)-2-fluorophenoxy]propyl}-1,3-thiazole-4-carboxylic acid] | < 1 nM | 68.3 nM | 98.8 nM | 
Cc1cc(N(C)c2nc(C(=O)O)c(C3CCN(C(=O)OC(C)(C)C)CC3)s2)nnc1Nc1nc2ccccc2s1 [Example 84, 2-({6-[(1,3-Benzothiazol-2-yl)amino]-5-methylpyridazin-3-yl}(methyl)amino)-5-{1-[(tert-butoxy)carbonyl]piperidin-4-yl}-1,3-thiazole-4-carboxylic acid] | 49 nM | 7570 nM | > 15000 nM | 
CNCCN(C)CCCCN(c1cc(C)c(Nc2nc3ccccc3s2)nn1)c1nc(C(=O)O)c(CCCOc2ccc(C#CCN(C)C)cc2F)s1 [Example 178, 2-[[6-(1,3-Benzothiazol-2-ylamino)-5-methyl-pyridazin-3-yl]-[4-[methyl-[2-(methylamino)ethyl]amino]butyl]amino]-5-[3-[4-[3-(dimethylamino)prop-1-ynyl]-2-fluoro-phenoxy]propyl]thiazole-4-carboxylic acid] |  |  |  | 0.0074 nM
Cc1cc(N(CCCCNCCN2CCCCC2)c2nc(C(=O)O)c(CCCOc3ccc(C#CCN(C)C)cc3F)s2)nnc1Nc1nc2ccccc2s1 [Example 179, 2-[[6-(1,3-Benzothiazol-2-ylamino)-5-methyl-pyridazin-3-yl]-[4-[2-(1-piperidyl)ethylamino]butyl]amino]-5-[3-[4-[3-(dimethylamino)prop-1-ynyl]-2-fluoro-phenoxy]propyl]thiazole-4-carboxylic acid] |  |  |  | 0.0068 nM
Cc1cc(N(CCCCNCCN2CCOCC2)c2nc(C(=O)O)c(CCCOc3ccc(C#CCN(C)C)cc3F)s2)nnc1Nc1nc2ccccc2s1 [Example 180, 2-[[6-(1,3-Benzothiazol-2-ylamino)-5-methyl-pyridazin-3-yl]-[4-(2-morpholinoethylamino)butyl]amino]-5-[3-[4-[3-(dimethylamino)prop-1-ynyl]-2-fluoro-phenoxy]propyl]thiazole-4-carboxylic acid] |  |  |  | 0.0052 nM
Cc1cc(N(CCCCNC2CCN(C)CC2)c2nc(C(=O)O)c(CCCOc3ccc(C#CCN(C)C)cc3F)s2)nnc1Nc1nc2ccccc2s1 [Example 181, 2-[[6-(1,3-Benzothiazol-2-ylamino)-5-methyl-pyridazin-3-yl]-[4-[(1-methyl-4-piperidyl)amino]butyl]amino]-5-[3-[4-[3-(dimethylamino)prop-1-ynyl]-2-fluoro-phenoxy]propyl]thiazole-4-carboxylic acid] |  |  |  | 0.0043 nM
Cc1cc(N(CCCCC[N+](C)(C)CCO)c2nc(C(=O)[O-])c(CCCOc3ccc(C#CCN(C)C)cc3F)s2)nnc1Nc1nc2ccccc2s1 [Example 226, 2-[[6-(1,3-Benzothiazol-2-ylamino)-5-methyl-pyridazin-3-yl]-[5-[2-hydroxyethyl(dimethyl)ammonio]pentyl]amino]-5-[3-[4-[3-(dimethylamino)prop-1-ynyl]-2-fluoro-phenoxy]propyl]thiazole-4-carboxylate] |  | 752 nM |  | 0.0053 nM
Cc1cc(N(CCCCC[N+](C)(C)CC(=O)O)c2nc(C(=O)[O-])c(CCCOc3ccc(C#CCN(C)C)cc3F)s2)nnc1Nc1nc2ccccc2s1 [Example 227, 2-[[6-(1,3-Benzothiazol-2-ylamino)-5-methyl-pyridazin-3-yl]-[5-[carboxymethyl(dimethyl)ammonio]pentyl]amino]-5-[3-[4-[3-(dimethylamino)prop-1-ynyl]-2-fluoro-phenoxy]propyl]thiazole-4-carboxylate] |  | 802 nM |  | 0.0035 nM
CNCC#Cc1ccc(OCCCc2sc(N(CCCC[N+](C)(C)C)c3cc(C)c(Nc4nc5ccccc5s4)nn3)nc2C(=O)O)c(F)c1 [Example 232, 2-[[6-(1,3-Benzothiazol-2-ylamino)-5-methyl-pyridazin-3-yl]-[4-(trimethylammonio)butyl]amino]-5-[3-[2-fluoro-4-[3-(methylamino)prop-1-ynyl]phenoxy]propyl]thiazole-4-carboxylate] |  |  |  | 0.0017 nM
CNCC#Cc1ccc(OCCCc2sc(N(CCCP(=O)(O)O)c3cc(C)c(Nc4nc5ccccc5s4)nn3)nc2C(=O)O)c(F)c1 [Example 237, 2-[[6-(1,3-Benzothiazol-2-ylamino)-5-methyl-pyridazin-3-yl]-(3-phosphonopropyl)amino]-5-[3-[2-fluoro-4-[3-(methylamino)prop-1-ynyl]phenoxy]propyl]thiazole-4-carboxylic acid] |  | 750 nM |  | 0.0018 nM
Cc1cc(N(CCCC(=O)O)c2nc(C(=O)O)c(CCCOc3ccc(C#CCN(C)C)cc3F)s2)nnc1Nc1nc2ccccc2s1 [Example 238, 2-({6-[(1,3-Benzothiazol-2-yl)amino]-5-methylpyridazin-3-yl}(3-carboxypropyl)amino)-5-(3-{4-[3-(dimethylamino)prop-1-yn-1-yl]-2-fluorophenoxy}propyl)-1,3-thiazole-4-carboxylic acid] |  | 149 nM |  | 0.0045 nM

Second part, the compound after the results:

Ki [1] | IC50 [2] | IC50 [3] | Ki [4] | Structure (SMILES)
320 nM | > 15000 nM | > 15000 nM |  | Cc1cc(N(C)c2nc(C(=O)O)c(C3CCNCC3)s2)nnc1Nc1nc2ccccc2s1 [Example 83, 2-({6-[(1,3-Benzothiazol-2-yl)amino]-5-methylpyridazin-3-yl}(methyl)amino)-5-(piperidin-4-yl)-1,3-thiazole-4-carboxylic acid]
160 nM | 14600 nM | ≥ 12400 nM |  | Cc1cc(N(C)c2nc(C(=O)O)c(C3CCN(Cc4ccccc4)CC3)s2)nnc1Nc1nc2ccccc2s1 [Example 86, 2-({6-[(1,3-Benzothiazol-2-yl)amino]-5-methylpyridazin-3-yl}(methyl)amino)-5-(1-benzylpiperidin-4-yl)-1,3-thiazole-4-carboxylic acid]
530 nM | > 15000 nM | > 15000 nM |  | Cc1cc(N(C)c2nc(C(=O)O)c(C3CCN(CC(C)C)CC3)s2)nnc1Nc1nc2ccccc2s1 [Example 87, 2-({6-[(1,3-Benzothiazol-2-yl)amino]-5-methylpyridazin-3-yl}(methyl)amino)-5-[1-(2-methylpropyl)piperidin-4-yl]-1,3-thiazole-4-carboxylic acid]
2.8 nM | 1610 nM | 11000 nM |  | Cc1cc(N(C)c2nc(C(=O)O)c(N3CCC(COc4ccccc4)CC3)s2)nnc1Nc1nc2ccccc2s1 [Example 88, 2-({6-[(1,3-Benzothiazol-2-yl)amino]-5-methylpyridazin-3-yl}(methyl)amino)-5-[4-(phenoxymethyl)piperidin-1-yl]-1,3-thiazole-4-carboxylic acid]
220 nM | > 15000 nM | > 15000 nM |  | Cc1cc(N(C)c2nc(C(=O)O)c(C3CCCCC3)s2)nnc1Nc1nc2ccccc2s1 [Example 102, 2-({6-[(1,3-Benzothiazol-2-yl)amino]-5-methylpyridazin-3-yl}(methyl)amino)-5-cyclohexyl-1,3-thiazole-4-carboxylic acid]
380 nM | > 15000 nM | > 15000 nM |  | Cc1cc(N(C)c2nc(C(=O)O)c(C3CCCC3)s2)nnc1Nc1nc2ccccc2s1 [Example 105, 2-({6-[(1,3-Benzothiazol-2-yl)amino]-5-methylpyridazin-3-yl}(methyl)amino)-5-cyclopentyl-1,3-thiazole-4-carboxylic acid]
27 nM | > 15000 nM | > 15000 nM |  | C=Cc1sc(N(C)c2cc(C)c(Nc3nc4ccccc4s3)nn2)nc1C(=O)O [Example 106, 2-({6-[(1,3-benzothiazol-2-yl)amino]-5-methylpyridazin-3-yl}(methyl)amino)-5-ethenyl-1,3-thiazole-4-carboxylic acid]
 |  |  | 0.023 nM | CNCC#Cc1ccc(OCCCc2sc(N(C)c3cc(C(F)(F)F)c(Nc4nc5ccccc5s4)nn3)nc2C(=O)O)c(F)c1 [Example 209, 2-[[6-(1,3-Benzothiazol-2-ylamino)-5-(trifluoromethyl)pyridazin-3-yl]-methyl-amino]-5-[3-[2-fluoro-4-[3-(methylamino)prop-1-ynyl]phenoxy]propyl]thiazole-4-carboxylic acid]

— patent publication US12649733B2, “3,6-diamino-pyridazin-3-yl derivatives, pharmaceutical compositions containing them and their uses as pro-apoptotic agents” (LES LABORATOIRES SERVIER, priority 2019, dated 2026)
